Drawing on patent US9328099B2, “Cyanomethylpyrazole carboxamides as janus kinase inhibitors” (Merck Sharp & Dohme Corp., priority 2011, dated 2016), this text covers IC50 for 20 molecules.

In assay [1] the target is JAK1 (Homo sapiens (Human), UniProt P23458). In words: Jak Biochemical HTRF Assay, JAK1. To be noted: HTRF biochemical assay, GST-tagged catalytic domain; top concentration tested […]; read-out: JAK1 IC50. From the text: (§1) Jak Biochemical HTRF Assay Protocol
(§2) Subsequent reagent additions employed an Agilent Bravo.
In general terms: TR-FRET usually uses a lanthanide donor and a delayed reading to cut background.

Assay [2] addresses JAK2 (Homo sapiens (Human), UniProt O60674). Description: Jak Biochemical HTRF Assay, JAK2. To be noted: HTRF biochemical assay, GST-tagged catalytic domain; top concentration tested […].
Text: as §1, §2

Chain of JAK2 (O60674 849-1124): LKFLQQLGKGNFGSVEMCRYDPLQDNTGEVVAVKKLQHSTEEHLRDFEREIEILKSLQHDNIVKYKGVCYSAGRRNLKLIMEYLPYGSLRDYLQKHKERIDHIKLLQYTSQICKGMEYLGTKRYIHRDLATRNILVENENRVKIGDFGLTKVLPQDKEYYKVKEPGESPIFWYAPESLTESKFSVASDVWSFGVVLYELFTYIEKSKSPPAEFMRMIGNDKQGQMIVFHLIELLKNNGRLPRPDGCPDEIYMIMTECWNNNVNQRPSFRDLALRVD
Chain of JAK1 (P23458 875-1153): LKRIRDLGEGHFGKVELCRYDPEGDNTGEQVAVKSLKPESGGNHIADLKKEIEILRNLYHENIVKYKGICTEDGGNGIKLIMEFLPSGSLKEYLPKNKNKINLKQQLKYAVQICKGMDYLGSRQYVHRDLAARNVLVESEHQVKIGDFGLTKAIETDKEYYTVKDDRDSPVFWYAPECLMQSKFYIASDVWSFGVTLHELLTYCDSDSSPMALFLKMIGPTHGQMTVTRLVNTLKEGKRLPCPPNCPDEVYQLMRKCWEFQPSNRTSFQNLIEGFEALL

`Cc1ccc(NC(=O)N2CC(CC#N)(n3cc(C(N)=O)c(Nc4ccccc4)n3)C2)c(C)c1` [Example 38-19, 1-{3-(cyanomethyl)-1-[(2,4-dimethylphenyl)carbamoyl]azetidin-3-yl}-3-(phenylamino)-1H-pyrazole-4-carboxamide]: the results for the IC50 in assay [1] and in assay [2] were 23 nM and 334 nM, respectively.

As for `Cc1cc(C)cc(NC(=O)N2CC(CC#N)(n3cc(C(N)=O)c(Nc4ccccc4)n3)C2)c1` [Example 38-20, 1-{3-(cyanomethyl)-1-[(3,5-dimethylphenyl)carbamoyl]azetidin-3-yl}-3-(phenylamino)-1H-pyrazole-4-carboxamide], the IC50 in assay [1] was determined as 19 nM; in assay [2], 326 nM.

For the molecule `N#CCC1(n2cc(C(N)=O)c(Nc3ccccc3)n2)CN(C(=O)Nc2ccc(F)c(F)c2)C1` [Example 38-21, 1-{3-(cyanomethyl)-1-[(3,4-difluorophenyl)carbamoyl]azetidin-3-yl}-3-(phenylamino)-1H-pyrazole-4-carboxamide], the IC50 was 7 nM in assay [1] and 173 nM in assay [2].

On to `Cc1c(Cl)cccc1NC(=O)N1CC(CC#N)(n2cc(C(N)=O)c(Nc3ccccc3)n2)C1` [Example 38-22, 1-{1-[(3-chloro-2-methylphenyl)carbamoyl]-3-(cyanomethyl)azetidin-3-yl}-3-(phenylamino)-1H-pyrazole-4-carboxamide], for which the half-maximal inhibitory concentration (IC50) in assay [1] amounted to 19 nM; in assay [2], 249 nM.

On to `CCc1cccc(C)c1NC(=O)N1CC(CC#N)(n2cc(C(N)=O)c(Nc3ccccc3)n2)C1` [Example 38-23, 1-{3-(cyanomethyl)-1-[(2-ethyl-6-methylphenyl)carbamoyl]azetidin-3-yl}-3-(phenylamino)-1H-pyrazole-4-carboxamide], for which the results for the concentration for half-maximal inhibition (IC50) in assay [1] and in assay [2] were 94 nM and 1190 nM, respectively.

Consider `Cc1cccc(Cl)c1NC(=O)N1CC(CC#N)(n2cc(C(N)=O)c(Nc3ccccc3)n2)C1` [Example 38-24, 1-{1-[(2-chloro-6-methylphenyl)carbamoyl]-3-(cyanomethyl)azetidin-3-yl}-3-(phenylamino)-1H-pyrazole-4-carboxamide], for which the half-inhibitory concentration (IC50) in assay [1] was 5 nM; in assay [2] it was 179 nM.

With `COc1ccc(C)cc1NC(=O)N1CC(CC#N)(n2cc(C(N)=O)c(Nc3ccccc3)n2)C1` [Example 38-25, 1-{3-(cyanomethyl)-1-[(2-methoxy-5-methylphenyl)carbamoyl]azetidin-3-yl}-3-(phenylamino)-1H-pyrazole-4-carboxamide], the half-inhibitory concentration (IC50) in assay [1] came to 18 nM; in assay [2], 168 nM.

On to `CCOc1ccc(NC(=O)N2CC(CC#N)(n3cc(C(N)=O)c(Nc4ccccc4)n3)C2)cc1` [Example 38-26, 1-{3-(cyanomethyl)-1-[(4-ethoxyphenyl)carbamoyl]azetidin-3-yl}-3-(phenylamino)-1H-pyrazole-4-carboxamide], for which the concentration for half-maximal inhibition (IC50) in assay [1] came out at 2 nM; in assay [2], 69 nM.

Turning to `Cc1ccccc1NC(=O)N1CC(CC#N)(n2cc(C(N)=O)c(Nc3ccccc3)n2)C1` [Example 38-27, 1-{3-(cyanomethyl)-1-[(2-methylphenyl)carbamoyl]azetidin-3-yl}-3-(phenylamino)-1H-pyrazole-4-carboxamide], the IC50 in assay [1] turned out to be 11 nM; in assay [2], 162 nM.

With `N#CCC1(n2cc(C(N)=O)c(Nc3ccccc3)n2)CN(C(=O)Nc2ccc(F)cc2F)C1` [Example 38-28, 1-{3-(cyanomethyl)-1-[(2,4-difluorophenyl)carbamoyl]azetidin-3-yl}-3-(phenylamino)-1H-pyrazole-4-carboxamide], the half-inhibitory concentration (IC50) in assay [1] came to 6 nM; in assay [2], 79 nM.

On to `CC(C)(C)CC(C)(C)NC(=O)N1CC(CC#N)(n2cc(C(N)=O)c(Nc3ccccc3)n2)C1` [Example 38-29, 1-{3-(cyanomethyl)-1-[(1,1,3,3-tetramethylbutyl)carbamoyl]azetidin-3-yl}-3-(phenylamino)-1H-pyrazole-4-carboxamide], for which the figures for the IC50 in assay [1] and in assay [2] were 185 nM and 1480 nM, respectively.

In the case of `CCOc1ccccc1NC(=O)N1CC(CC#N)(n2cc(C(N)=O)c(Nc3ccccc3)n2)C1` [Example 38-30, 1-{3-(cyanomethyl)-1-[(2-ethoxyphenyl)carbamoyl]azetidin-3-yl}-3-(phenylamino)-1H-pyrazole-4-carboxamide], the IC50 in assay [1] is 62 nM; in assay [2] it was 507 nM.

For `Cc1cccc(C)c1NC(=O)N1CC(CC#N)(n2cc(C(N)=O)c(Nc3ccccc3)n2)C1` [Example 38-31, 1-{3-(cyanomethyl)-1-[(2,6-dimethylphenyl)carbamoyl]azetidin-3-yl}-3-(phenylamino)-1H-pyrazole-4-carboxamide], the 50% inhibitory concentration (IC50) in assay [1] was 33 nM; in assay [2] it was 656 nM.

Take `CC(=O)c1cccc(NC(=O)N2CC(CC#N)(n3cc(C(N)=O)c(Nc4ccccc4)n3)C2)c1` [Example 38-32, 1-{1-[(3-acetylphenyl)carbamoyl]-3-(cyanomethyl)azetidin-3-yl}-3-(phenylamino)-1H-pyrazole-4-carboxamide]: the figures for the concentration for half-maximal inhibition (IC50) in assay [1] and in assay [2] were 4 nM and 86 nM, respectively.

Regarding `C[C@@H](NC(=O)N1CC(CC#N)(n2cc(C(N)=O)c(Nc3ccccc3)n2)C1)c1ccccc1` [Example 38-33, 1-[3-(cyanomethyl)-1-{[(1R)-1-phenylethyl]carbamoyl}azetidin-3-yl]-3-(phenylamino)-1H-pyrazole-4-carboxamide], the results for the half-maximal inhibitory concentration (IC50) in assay [1] and in assay [2] were 26 nM and 265 nM, respectively.

Take `CCc1cccc(NC(=O)N2CC(CC#N)(n3cc(C(N)=O)c(Nc4ccccc4)n3)C2)c1` [Example 38-35, 1-{3-(cyanomethyl)-1-[(3-ethylphenyl)carbamoyl]azetidin-3-yl}-3-(phenylamino)-1H-pyrazole-4-carboxamide]: the values for the IC50 in assay [1] and in assay [2] were 8 nM and 144 nM, respectively.

As for `COc1ccc(NC(=O)N2CC(CC#N)(n3cc(C(N)=O)c(Nc4ccccc4)n3)C2)c(C)c1` [Example 38-36, 1-{3-(cyanomethyl)-1-[(4-methoxy-2-methylphenyl)carbamoyl]azetidin-3-yl}-3-(phenylamino)-1H-pyrazole-4-carboxamide], the IC50 stood at 15 nM in assay [1] and 233 nM in assay [2].

`Cc1ccc(NC(=O)N2CC(CC#N)(n3cc(C(N)=O)c(Nc4ccccc4)n3)C2)cc1F` [Example 38-37, 1-{3-(cyanomethyl)-1-[(3-fluoro-4-methylphenyl)carbamoyl]azetidin-3-yl}-3-(phenylamino)-1H-pyrazole-4-carboxamide]: the values for the IC50 in assay [1] and in assay [2] were 8 nM and 114 nM, respectively.

Take `CCc1ccccc1NC(=O)N1CC(CC#N)(n2cc(C(N)=O)c(Nc3ccccc3)n2)C1` [Example 38-39, 1-{3-(cyanomethyl)-1-[(2-ethylphenyl)carbamoyl]azetidin-3-yl}-3-(phenylamino)-1H-pyrazole-4-carboxamide]: the half-maximal inhibitory concentration (IC50) in assay [1] is 16 nM; in assay [2], 303 nM.

Regarding `N#CCC1(n2cc(C(N)=O)c(Nc3ccccc3)n2)CN(C(=O)Nc2ccc(F)c(Cl)c2)C1` [Example 38-40, 1-{1-[(3-chloro-4-fluorophenyl)carbamoyl]-3-(cyanomethyl)azetidin-3-yl}-3-(phenylamino)-1H-pyrazole-4-carboxamide], the half-maximal inhibitory concentration (IC50) in assay [1] was 18 nM; in assay [2], 279 nM.

As usually defined, the IC50 is the concentration that inhibits the measured activity by half.
